Measured values as given in patent US20240109865A1, “INDAZOLE COMPOUNDS AS KINASE INHIBITORS” (TYRA BIOSCIENCES, INC., priority 2020, published 2024).

Assays:
Test in all cases: Kinase assay, binding constants (Kd), kinase-tagged T7 phage, qPCR
FGFR3 = FGFR3 (Homo sapiens (Human), UniProt P22607)
How it was run: (§1)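 Kinase-tagged T7 phage (grown in BL21-derived E. coli) competed with test compound for immobilized biotinylated ligand on streptavidin beads. Kds came from an 11-point 3-fold dilution series at 0.9% final DMSO. Bound kinase was eluted with non-biotinylated ligand and quantified by qPCR, with Hill slope fixed at −1.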

FGFR4 = FGFR4 (Homo sapiens (Human), UniProt P22455)
How it was run: as §1

FGFR2 = FGFR2 (Homo sapiens (Human), UniProt P21802)
How it was run: as §1

FGFR3 (V555M) = FGFR3 (V555M) (Homo sapiens (Human), UniProt P22607, V555M); settings: V555M mutant
How it was run: as §1

FGFR1 = FGFR1 (Homo sapiens (Human), UniProt P11362)
How it was run: as §1

Sequence of FGFR4 (P22455 22-802): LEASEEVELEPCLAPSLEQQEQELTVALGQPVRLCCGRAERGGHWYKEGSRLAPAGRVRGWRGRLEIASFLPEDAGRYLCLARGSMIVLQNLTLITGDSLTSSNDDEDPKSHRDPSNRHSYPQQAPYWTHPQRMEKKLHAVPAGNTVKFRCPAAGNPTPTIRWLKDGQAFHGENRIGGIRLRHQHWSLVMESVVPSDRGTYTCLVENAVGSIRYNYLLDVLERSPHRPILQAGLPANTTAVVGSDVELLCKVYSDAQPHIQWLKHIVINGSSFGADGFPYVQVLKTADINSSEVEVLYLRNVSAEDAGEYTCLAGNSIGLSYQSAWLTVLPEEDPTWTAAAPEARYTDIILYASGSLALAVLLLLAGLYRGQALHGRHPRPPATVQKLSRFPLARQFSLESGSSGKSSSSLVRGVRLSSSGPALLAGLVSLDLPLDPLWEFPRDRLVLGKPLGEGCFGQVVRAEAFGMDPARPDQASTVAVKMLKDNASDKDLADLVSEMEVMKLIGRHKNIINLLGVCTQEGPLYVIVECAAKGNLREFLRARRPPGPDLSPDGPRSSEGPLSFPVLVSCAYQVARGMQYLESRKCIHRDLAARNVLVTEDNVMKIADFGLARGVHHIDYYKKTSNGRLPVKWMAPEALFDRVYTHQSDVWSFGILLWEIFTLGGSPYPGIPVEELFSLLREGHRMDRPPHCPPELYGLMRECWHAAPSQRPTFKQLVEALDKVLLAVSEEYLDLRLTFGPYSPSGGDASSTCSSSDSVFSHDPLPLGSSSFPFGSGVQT
Sequence of FGFR1 (P11362 22-822): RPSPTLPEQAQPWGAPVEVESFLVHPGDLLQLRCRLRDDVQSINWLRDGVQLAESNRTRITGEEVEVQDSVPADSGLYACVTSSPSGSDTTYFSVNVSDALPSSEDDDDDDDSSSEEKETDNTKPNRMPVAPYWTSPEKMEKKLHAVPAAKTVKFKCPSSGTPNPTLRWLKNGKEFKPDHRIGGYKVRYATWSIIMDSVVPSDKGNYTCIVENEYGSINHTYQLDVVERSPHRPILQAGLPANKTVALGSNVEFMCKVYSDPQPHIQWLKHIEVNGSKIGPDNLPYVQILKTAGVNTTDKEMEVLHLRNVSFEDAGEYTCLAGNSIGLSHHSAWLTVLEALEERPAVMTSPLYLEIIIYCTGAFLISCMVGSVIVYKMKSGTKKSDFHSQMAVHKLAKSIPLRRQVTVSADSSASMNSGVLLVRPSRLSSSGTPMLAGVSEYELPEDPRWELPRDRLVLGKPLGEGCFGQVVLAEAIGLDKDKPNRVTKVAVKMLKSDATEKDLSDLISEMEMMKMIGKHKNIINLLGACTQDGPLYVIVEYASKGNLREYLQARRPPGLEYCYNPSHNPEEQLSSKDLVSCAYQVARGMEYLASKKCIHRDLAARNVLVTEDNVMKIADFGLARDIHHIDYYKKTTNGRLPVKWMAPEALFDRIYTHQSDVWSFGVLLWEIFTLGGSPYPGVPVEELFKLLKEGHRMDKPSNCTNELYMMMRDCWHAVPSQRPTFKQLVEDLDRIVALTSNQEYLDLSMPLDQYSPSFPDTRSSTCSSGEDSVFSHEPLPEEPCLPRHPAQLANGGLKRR
Sequence of FGFR3 (P22607 23-806): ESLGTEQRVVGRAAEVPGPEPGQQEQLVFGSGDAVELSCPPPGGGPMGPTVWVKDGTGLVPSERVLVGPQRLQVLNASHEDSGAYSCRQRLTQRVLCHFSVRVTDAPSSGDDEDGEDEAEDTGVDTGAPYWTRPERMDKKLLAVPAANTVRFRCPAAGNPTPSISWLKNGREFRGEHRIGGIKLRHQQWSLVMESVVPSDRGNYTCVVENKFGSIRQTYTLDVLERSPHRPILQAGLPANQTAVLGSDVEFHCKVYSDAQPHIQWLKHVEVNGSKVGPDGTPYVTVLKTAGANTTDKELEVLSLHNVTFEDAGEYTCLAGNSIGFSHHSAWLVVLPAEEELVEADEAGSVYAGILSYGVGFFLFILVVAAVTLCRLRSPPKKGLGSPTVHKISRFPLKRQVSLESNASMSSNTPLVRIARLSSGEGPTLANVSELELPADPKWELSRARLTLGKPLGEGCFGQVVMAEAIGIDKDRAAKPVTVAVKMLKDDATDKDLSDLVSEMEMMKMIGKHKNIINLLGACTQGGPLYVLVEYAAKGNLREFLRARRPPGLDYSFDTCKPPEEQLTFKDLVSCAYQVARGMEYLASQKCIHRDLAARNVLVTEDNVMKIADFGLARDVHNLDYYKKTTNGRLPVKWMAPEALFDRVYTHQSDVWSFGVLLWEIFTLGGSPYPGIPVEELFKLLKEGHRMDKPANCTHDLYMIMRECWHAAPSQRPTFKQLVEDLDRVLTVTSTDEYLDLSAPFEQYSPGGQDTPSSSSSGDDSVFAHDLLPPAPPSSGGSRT
Sequence of FGFR3 (V555M) (P22607 23-806 V555M): as the sequence (P22607 23-806) above, with V533M counted along it
Sequence of FGFR2 (P21802 22-821): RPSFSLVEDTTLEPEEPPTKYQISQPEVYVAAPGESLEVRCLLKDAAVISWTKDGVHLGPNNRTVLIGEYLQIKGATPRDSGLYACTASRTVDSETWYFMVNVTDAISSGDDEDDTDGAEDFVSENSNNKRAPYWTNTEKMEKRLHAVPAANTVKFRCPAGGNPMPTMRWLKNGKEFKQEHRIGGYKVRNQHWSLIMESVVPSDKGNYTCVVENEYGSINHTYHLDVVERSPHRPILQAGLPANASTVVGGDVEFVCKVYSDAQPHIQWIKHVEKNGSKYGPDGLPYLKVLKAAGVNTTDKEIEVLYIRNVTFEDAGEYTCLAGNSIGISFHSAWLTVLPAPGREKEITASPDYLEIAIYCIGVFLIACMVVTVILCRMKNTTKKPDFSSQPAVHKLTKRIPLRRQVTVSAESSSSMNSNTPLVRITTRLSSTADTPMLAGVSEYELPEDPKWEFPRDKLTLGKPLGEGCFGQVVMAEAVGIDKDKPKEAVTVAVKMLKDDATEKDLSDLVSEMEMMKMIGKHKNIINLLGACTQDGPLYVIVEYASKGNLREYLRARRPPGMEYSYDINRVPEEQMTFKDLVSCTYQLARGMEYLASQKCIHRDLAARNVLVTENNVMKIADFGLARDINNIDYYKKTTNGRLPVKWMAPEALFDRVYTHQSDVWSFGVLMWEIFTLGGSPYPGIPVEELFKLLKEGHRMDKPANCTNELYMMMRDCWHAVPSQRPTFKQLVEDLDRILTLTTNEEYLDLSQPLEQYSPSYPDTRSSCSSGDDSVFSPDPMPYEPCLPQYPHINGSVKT

Row | SMILES | Kd (FGFR3) | Kd (FGFR4) | Kd (FGFR2) | Kd (FGFR3 (V555M)) | Kd (FGFR1)
1 | CCOC(=O)N1CC2(C1)CN(c1ccc(-c3n[nH]c4ccc(O[C@@H](C)c5c(C)cnnc5C)cc34)cn1)C2 [Example 151, ethyl 6-[5-[5-[(1S)-1-(3,5-dimethylpyridazin-4-yl)ethoxy]-1H-indazol-3-yl]-2-pyridyl]-2,6-diazaspiro[3.3]heptane-2-carboxylate] | 20 to 100 nM | 100 to 300 nM | 100 to 300 nM | 1 to 20 nM | > 300 nM
2 | COc1cc2[nH]nc(-c3cnc(N4CC5(C4)CN(S(C)(=O)=O)C5)c(CN(C)C)c3)c2cc1O[C@H](C)c1c(Cl)cncc1Cl [Example 357, (R)-1-(5-(5-(1-(3,5-dichloropyridin-4-yl)ethoxy)-6-methoxy-1H-indazol-3-yl)-2-(6-(methylsulfonyl)-2,6-diazaspiro[3.3]heptan-2-yl)pyridin-3-yl)-N,N-dimethylmethanamine] | 100 to 300 nM | 1 to 20 nM | > 300 nM | 20 to 100 nM | > 300 nM
3 | Cc1ncc(Cl)c([C@@H](C)Oc2cc3c(-c4cnc(N5CC6(C5)CN(S(C)(=O)=O)C6)c(F)c4)n[nH]c3cc2Cl)c1Cl [Example 270, 6-chloro-5-[(1R)-1-(3,5-dichloro-2-methyl-4-pyridyl)ethoxy]-3-[5-fluoro-6-(2-methylsulfonyl-2,6-diazaspiro[3.3]heptan-6-yl)-3-pyridyl]-1H-indazole] | 1 to 20 nM | 1 to 20 nM | 20 to 100 nM | 1 to 20 nM | 20 to 100 nM
4 | Cc1cnnc(C)c1[C@@H](C)Oc1ccc2[nH]nc(-c3cnc(N4CCN5C(=O)NCC5C4)c(C#N)c3)c2c1 (stereo partly drawn) [Example 325, 5-(5-((R)-1-(3,5-dimethylpyridazin-4-yl)ethoxy)-1H-indazol-3-yl)-2-(3-oxohexahydroimidazo[1,5-a]pyrazin-7(1H)-yl)nicotinonitrile] | 1 to 20 nM | 1 to 20 nM | 1 to 20 nM | 1 to 20 nM | 20 to 100 nM
5 | C[C@@H](Oc1ccc2[nH]nc(-c3ccc(N4CC5(CCN(S(C)(=O)=O)CC5)OC4=O)nc3)c2c1)c1c(Cl)cncc1Cl [Example 76, 3-[5-[5-[(1R)-1-(3,5-dichloro-4-pyridyl)ethoxy]-1H-indazol-3-yl]-2-pyridyl]-8-methylsulfonyl-1-oxa-3,8-diazaspiro[4.5]decan-2-one] | 1 to 20 nM | 1 to 20 nM | 20 to 100 nM | 1 to 20 nM | 20 to 100 nM
6 | C[C@@H](Oc1ccc2[nH]nc(-c3cnc(N4CC5(CCCN(S(C)(=O)=O)C5)C4)nc3)c2c1)c1c(Cl)cncc1Cl [Example 134, 5-[(1R)-1-(3,5-dichloro-4-pyridyl)ethoxy]-3-[2-(8-methylsulfonyl-2,8-diazaspiro[3.5]nonan-2-yl)pyrimidin-5-yl]-1H-indazole] | 1 to 20 nM | 1 to 20 nM | 20 to 100 nM | 1 to 20 nM | 20 to 100 nM
7 | Cc1cc2[nH]nc(-c3cnc(N4CC5(C4)CN(S(C)(=O)=O)C5)c(F)c3)c2cc1O[C@H](C)c1c(Cl)cnnc1Cl [Example 259, (R)-5-(1-(3,5-dichloropyridazin-4-yl)ethoxy)-3-(5-fluoro-6-(6-(methylsulfonyl)-2,6-diazaspiro[3.3]heptan-2-yl)pyridin-3-yl)-6-methyl-1H-indazole] | 1 to 20 nM | 1 to 20 nM | 1 to 20 nM | 1 to 20 nM | 1 to 20 nM
8 | C[C@@H](Oc1cc2c(-c3cnc(N4CC5(CCS(=O)(=O)C5)C4)c(C#N)c3)n[nH]c2cc1F)c1c(Cl)cncc1Cl [Example 378, 5-[5-[(1R)-1-(3,5-dichloro-4-pyridyl)ethoxy]-6-fluoro-1H-indazol-3-yl]-2-(6,6-dioxo-6λ^6-thia-2-azaspiro[3.4]octan-2-yl)pyridine-3-carbonitrile] | 1 to 20 nM | 1 to 20 nM | 20 to 100 nM | 1 to 20 nM | 100 to 300 nM
9 | C[C@@H](Oc1ccc2[nH]nc(-c3cnc(N4CCCNCC4)nc3)c2c1)c1c(Cl)cncc1Cl [Example 61, 3-[2-(1,4-Diazepan-1-yl)pyrimidin-5-yl]-5-[(1R)-1-(3,5-dichloro-4-pyridyl)ethoxy]-1H-indazole] | 1 to 20 nM | 1 to 20 nM | 20 to 100 nM | 1 to 20 nM | 1 to 20 nM
10 | CCOC(=O)N1CCC2(CC1)CN(c1ncc(-c3n[nH]c4ccc(O[C@H](C)c5c(Cl)cncc5Cl)cc34)cn1)C2 [Example 126, ethyl 2-[5-[5-[(1R)-1-(3,5-dichloro-4-pyridyl)ethoxy]-1H-indazol-3-yl]pyrimidin-2-yl]-2,7-diazaspiro[3.5]nonane-7-carboxylate] | 1 to 20 nM | 1 to 20 nM | 100 to 300 nM | 1 to 20 nM | 100 to 300 nM
11 | COc1cc(-c2n[nH]c3ccc(O[C@H](C)c4c(C)cnnc4C)cc23)cnc1N1CC2CC(C1)N2CC(C)(C)O [Example 323, 1-(3-(5-(5-((R)-1-(3,5-dimethylpyridazin-4-yl)ethoxy)-1H-indazol-3-yl)-3-methoxypyridin-2-yl)-3,6-diazabicyclo[3.1.1]heptan-6-yl)-2-methylpropan-2-ol] | > 300 nM | 1 to 20 nM | > 300 nM | 20 to 100 nM | > 300 nM
12 | CCOC(=O)N1CC2(C1)CN(c1ncc(-c3n[nH]c4ccc(O[C@H](C)c5c(Cl)cnc(C)c5Cl)cc34)cn1)C2 [Example 185, ethyl 6-[5-[5-[(1R)-1-(3,5-dichloro-2-methyl-4-pyridyl)ethoxy]-1H-indazol-3-yl]pyrimidin-2-yl]-2,6-diazaspiro[3.3]heptane-2-carboxylate] | 20 to 100 nM | 1 to 20 nM | 100 to 300 nM | 1 to 20 nM | > 300 nM
13 | C[C@@H](Oc1ccc2[nH]nc(-c3ccc(N4CC5(COC5)C4)nc3)c2c1)c1c(Cl)cnnc1Cl [Example 229, (R)-6-(5-(5-(1-(3,5-dichloropyridazin-4-yl)ethoxy)-1H-indazol-3-yl)pyridin-2-yl)-2-oxa-6-azaspiro[3.3]heptane] | 20 to 100 nM | > 300 nM | 100 to 300 nM | 20 to 100 nM | > 300 nM

Now from value to compound:

Row | Kd (FGFR3) | Kd (FGFR4) | Kd (FGFR2) | Kd (FGFR3 (V555M)) | Kd (FGFR1) | SMILES
14 | 1 to 20 nM | 1 to 20 nM | 1 to 20 nM | 1 to 20 nM | 1 to 20 nM | C[C@@H](Oc1ccc2[nH]nc(-c3ccc(N4CC5(CCN5)C4)nc3)c2c1)c1c(Cl)cncc1Cl [Example 99, 3-[6-(1,6-diazaspiro[3.3]heptan-6-yl)-3-pyridyl]-5-[(1R)-1-(3,5-dichloro-4-pyridyl)ethoxy]-1H-indazole]
15 | 100 to 300 nM | 1 to 20 nM | > 300 nM | 20 to 100 nM | > 300 nM | C[C@@H](Oc1cc2c(-c3cnc(N4CCC4)c(C#N)c3)n[nH]c2cc1Cl)c1c(Cl)cncc1Cl [Example 377, 2-(azetidin-1-yl)-5-[6-chloro-5-[(1R)-1-(3,5-dichloro-4-pyridyl)ethoxy]-1H-indazol-3-yl]pyridine-3-carbonitrile]
16 | 1 to 20 nM | 20 to 100 nM | 1 to 20 nM | 1 to 20 nM | 20 to 100 nM | C[C@@H](Oc1cc2c(-c3cnc(N4CC(C)(C)C4)c(C#N)c3)n[nH]c2cc1Cl)c1c(Cl)cncc1Cl [Example 364, (R)-5-(6-chloro-5-(1-(3,5-dichloropyridin-4-yl)ethoxy)-1H-indazol-3-yl)-2-(3,3-dimethylazetidin-1-yl)nicotinonitrile]
17 | > 300 nM | 100 to 300 nM | > 300 nM | 100 to 300 nM | > 300 nM | CNCc1cc(-c2n[nH]c3ccc(O[C@H](C)c4c(Cl)cncc4Cl)cc23)cnc1N1CC2(C1)CN(S(C)(=O)=O)C2 [Example 368, (R)-1-(5-(5-(1-(3,5-dichloropyridin-4-yl)ethoxy)-1H-indazol-3-yl)-2-(6-(methylsulfonyl)-2,6-diazaspiro[3.3]heptan-2-yl)pyridin-3-yl)-N-methylmethanamine]
18 | 1 to 20 nM | 1 to 20 nM | 100 to 300 nM | 1 to 20 nM | 100 to 300 nM | C[C@@H](Oc1ccc2[nH]nc(-c3cnc(N4CC5C(O)C5C4)c(C#N)c3)c2c1)c1c(Cl)cncc1Cl (stereo partly drawn) [Example 331, 5-(5-((R)-1-(3,5-dichloropyridin-4-yl)ethoxy)-1H-indazol-3-yl)-2-(6-hydroxy-3-azabicyclo[3.1.0]hexan-3-yl)nicotinonitrile]
19 | 100 to 300 nM | 1 to 20 nM | 100 to 300 nM | 100 to 300 nM | > 300 nM | C[C@@H](Oc1ccc2[nH]nc(-c3cnc(N4CCC4)c(C#N)c3)c2c1)c1c(Cl)cnnc1Cl [Example 361, (R)-2-(azetidin-1-yl)-5-(5-(1-(3,5-dichloropyridazin-4-yl)ethoxy)-1H-indazol-3-yl)nicotinonitrile]
20 | > 300 nM | 20 to 100 nM | > 300 nM | 100 to 300 nM | > 300 nM | C[C@@H](Oc1ccc2[nH]nc(-c3cnc(N4CC(CC(F)(F)F)C4)c(C#N)c3)c2c1)c1c(Cl)cncc1Cl [Example 296, 5-[5-[(1R)-1-(3,5-dichloro-4-pyridyl)ethoxy]-1H-indazol-3-yl]-2-[3-(2,2,2-trifluoroethyl)azetidin-1-yl]pyridine-3-carbonitrile]
21 | 1 to 20 nM | 1 to 20 nM | 20 to 100 nM | 1 to 20 nM | 20 to 100 nM | C[C@@H](Oc1ccc2[nH]nc(-c3cnc(N4CC5(CCS(=O)(=O)C5)C4)c(C#N)c3)c2c1)c1c(Cl)cncc1Cl [Example 343, (R)-5-(5-(1-(3,5-dichloropyridin-4-yl)ethoxy)-1H-indazol-3-yl)-2-(6,6-dioxido-6-thia-2-azaspiro[3.4]octan-2-yl)nicotinonitrile]
